Like-named read-outs stand apart in the source and are kept apart here.

The term IC50 denotes the point on the concentration scale where inhibition reaches its midpoint.

Assay [1] concerns the target T1, recombinant N-terminal MLH1 (residues 15-340) (Homo sapiens, UniProt P40692).
T1 construct: recombinant N-terminal MLH1 (residues 15-340)
T1 sequence (P40692 15-340): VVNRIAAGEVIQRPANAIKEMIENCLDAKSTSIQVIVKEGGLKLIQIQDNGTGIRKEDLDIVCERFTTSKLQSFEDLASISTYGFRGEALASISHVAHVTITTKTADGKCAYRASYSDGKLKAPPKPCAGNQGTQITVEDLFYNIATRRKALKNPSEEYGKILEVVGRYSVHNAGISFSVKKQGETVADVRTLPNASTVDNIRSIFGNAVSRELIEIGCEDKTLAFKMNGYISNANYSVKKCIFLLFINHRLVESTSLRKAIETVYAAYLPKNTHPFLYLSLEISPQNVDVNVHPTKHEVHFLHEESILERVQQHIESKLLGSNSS
In words: Fluorescence Polarisation Assay for MLH1. It is filed as binding. The note with it: fluorescence polarisation probe displacement; 100 nM N-terminal MLH1, 5 nM probe compound. The method, then: Fluorescence Polarisation Assay for MLH1
Test compounds, as 10 mM DMSO stocks, were dispensed into a 384-well Low Flange Black Flat Bottom Polystyrene Non-binding Surface plate (Corning®, item number 3575) using a Labcyte Echo acoustic liquid handler. Test compounds were added to wells in columns 1-22 whilst DMSO was added to wells in columns 23 and 24 in order to normalise the plate. 20 μL of a 2× solution (200 nM) of recombinant N-terminal MLH1 (residues 15-340) in assay buffer (25 mM HEPES, pH 7.5, 250 mM NaCl, 10 mM MgCl2, 0.01% Triton X-100, 5 mM dithiothreitol) was added to all wells in columns 1-23 and 20 μL assay buffer was added to all wells in column 24 using an E1-ClipTip pipette (ThermoFisher). Plates were centrifuged for 1 minute at 250×g and were incubated at room temperature for 30 minutes prior to the addition of 20 μL of 2× (10 nM) 5-((5-(4-((2-(2,4-dihydroxy-5-isopropylbenzoyl)isoindolin-5-yl)methyl)piperazin-1-yl)pentyl)carbamoyl)-2-(6-(dimethylamino)-3-(dimethyliminio)-3H-xanthen-9-yl)benzoate in assay buffer (prepared from a 1 mM DMSO stock) with an E1-ClipTip pipette (ThermoFisher). The final concentration of N-terminal MLH1 was 100 nM and the final concentration of the probe compound was 5 nM. Compound plates were centrifuged for 1 minute at 250×g for 1 minute and immediately read on a PheraStar FSX (fitted with 384-well aperture spoon and 590 675 675 FP optic module). The gain and focus were adjusted before each plate was read so that the polarisation of a no enzyme control (column 24) was equal to 35 mP. Data were normalised against the no inhibitor controls (column 23) and no enzyme controls (column 24).
Background: Fluorescence polarisation rises when a labelled molecule tumbles more slowly, as on binding a larger partner.

Assay [2] addresses T2, recombinant N-terminal PMS2 (residues 1-365) (Homo sapiens, UniProt P54278).
T2 construct: recombinant N-terminal PMS2 (residues 1-365)
T2 sequence (P54278 1-365): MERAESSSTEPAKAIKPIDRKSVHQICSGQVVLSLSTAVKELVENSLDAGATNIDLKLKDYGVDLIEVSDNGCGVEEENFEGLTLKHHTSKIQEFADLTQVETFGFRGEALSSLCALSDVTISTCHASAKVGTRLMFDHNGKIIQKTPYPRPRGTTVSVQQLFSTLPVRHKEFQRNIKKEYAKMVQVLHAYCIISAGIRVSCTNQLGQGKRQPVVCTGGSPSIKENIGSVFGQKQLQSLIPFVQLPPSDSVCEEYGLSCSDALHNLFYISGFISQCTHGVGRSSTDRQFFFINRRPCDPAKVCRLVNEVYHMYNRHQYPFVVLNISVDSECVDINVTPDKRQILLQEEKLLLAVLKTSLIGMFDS
In words: Fluorescence Polarisation Assay for PMS2. Format: binding. The note with it: 10 nM N-terminal PMS2, 5 nM probe compound. The method, then: Fluorescence Polarisation Assay for PMS2
For single point screening, test compounds were added to wells in columns 1-22 whilst DMSO was added to wells in columns 23 and 24 in order to normalise the plate. For potency determination, serial dilutions of test compounds were added to wells in columns 3-22 and DMSO volume was normalised across the plate.
20 μL assay buffer was added to all wells in columns 1 and 24 (column 24 only for single point screening) using a MultiDrop Combi (ThermoFisher). Plates were centrifuged for 1 minute at 250×g and were incubated at room temperature for 30 minutes prior to the addition of 20 μL of 2× (20 nM) of 5-((5-(4-((2-(2,4-dihydroxy-5-isopropylbenzoyl)isoindolin-5-yl)methyl)piperazin-1-yl)pentyl)carbamoyl)-2-(6-(dimethylamino)-3-(dimethyliminio)-3H-xanthen-9-yl)benzoate (referred to hereinafter as “probe compound”) in assay buffer (prepared from a 100 μM DMSO stock) with a MultiDrop Combi (ThermoFisher). The final concentration of N-terminal PMS2 was 10 nM and the final concentration of probe compound was 5 nM.
Compound plates were centrifuged for 1 minute at 250×g for 1 minute and were incubated at room temperature for 1 hour before being read on a PheraStar FSX (fitted with 384-well aperture spoon and 540 590 590 FP optic module). The gain and focus were adjusted before each plate was read so that the polarisation of a no enzyme control (column 24) was equal to 35 mP. Data were normalised against the no inhibitor controls (column 23) and no enzyme controls (column 24).

Setting [3] is: fluorescence polarisation probe displacement, read-out: PMS2 IC50.

With `CCOc1cc(O)cc(O)c1C(=O)N1Cc2cccc(NC3CCOC3)c2C1` (stereo not drawn) [Example 17, (2-Ethoxy-4,6-dihydroxyphenyl)(4-((tetrahydrofuran-3-yl)amino)isoindolin-2-yl)methanone], the IC50 in assay [1] was less than 1 µM; in assay [2] (PMS2 IC50, fluorescence polarisation probe displacement), more than 10 µM.

Take `O=C(c1c(O)cc(O)cc1OCc1cccnc1)N1Cc2cccc(NC3CCOC3)c2C1` (stereo not drawn) [Example 96, (2,4-dihydroxy-6-(pyridin-3-ylmethoxy)phenyl)(4-((tetrahydrofuran-3-yl)amino)isoindolin-2-yl)methanone]: the IC50 is less than 1 µM in assay [1] and more than 10 µM in assay [2] (setting [3]).

With `O=C(c1c(O)cc(O)cc1OCc1ccccc1)N1CCc2ncnc(N[C@H]3CCOC3)c2C1` [Example 115, (S)-(2-(Benzyloxy)-4,6-dihydroxyphenyl)(4-((tetrahydrofuran-3-yl)amino)-7,8-dihydropyrido[4,3-d]pyrimidin-6(5H)-yl)methanone], the IC50 in assay [1] and in assay [2] (setting [3]) was 1 to 10 µM each time.

As to `O=C(c1c(O)cc(O)cc1OCc1ccccc1)N1Cc2cccc(N3CCCC(O)C3)c2C1` (stereo not drawn) [Example 8, (2-(Benzyloxy)-4,6-dihydroxyphenyl)(4-(3-hydroxypiperidin-1-yl)isoindolin-2-yl)methanone], the IC50 in assay [1] and in assay [2] (setting [3]) was 1 to 10 µM each time.

On to `CN1CCC(Oc2cc3c(c(N[C@@H]4CCOC4)c2)CN(C(=O)c2c(O)cc(O)cc2OCc2ccccc2)CC3)CC1` [Example 138, (R)-(2-(Benzyloxy)-4,6-dihydroxyphenyl)(6-((1-methylpiperidin-4-yl)oxy)-8-((tetrahydrofuran-3-yl)amino)-3,4-dihydroisoquinolin-2(1H)-yl)methanone], for which the IC50 was less than 1 µM in assay [1] and 1 to 10 µM in assay [2] (setting [3]).

Consider `O=C(c1c(O)cc(O)cc1OCc1ccccc1)N1Cc2cccc(Nc3cncnc3)c2C1` [Example 19, (2-(Benzyloxy)-4,6-dihydroxyphenyl)(4-(pyrimidin-5-ylamino)isoindolin-2-yl)methanone], for which the IC50 in assay [1] and in assay [2] (setting [3]) was less than 1 µM each time.

`O=C(c1c(O)cc(O)cc1OCC1CCCCC1)N1CCc2cccc(N[C@H]3CCOC3)c2C1` [Example 140, (S)-(2-(Cyclohexylmethoxy)-4,6-dihydroxyphenyl)(8-((tetrahydrofuran-3-yl)amino)-3,4-dihydroisoquinolin-2(1H)-yl)methanone]: the IC50 is 1 to 10 µM in assay [1] and less than 1 µM in assay [2] (setting [3]).

For `COCCOc1cc2c(c(N[C@@H]3CCOC3)c1)CN(C(=O)c1c(O)cc(O)cc1OCC1CC1)CC2` [Example 141, (R)-(2-(Cyclopropylmethoxy)-4,6-dihydroxyphenyl)(6-(2-methoxyethoxy)-8-((tetrahydrofuran-3-yl)amino)-3,4-dihydroisoquinolin-2(1H)-yl)methanone], the IC50 in assay [1] is 1 to 10 µM; in assay [2] (setting [3]) it was more than 10 µM.

Take `CC(=O)NCc1cccc2c1CN(C(=O)c1c(O)cc(O)cc1OCc1ccccc1)C2` [Example 95, N-((2-(2-(Benzyloxy)-4,6-dihydroxybenzoyl)isoindolin-4-yl)methyl)acetamide]: the IC50 in assay [1] and in assay [2] (setting [3]) was 1 to 10 µM throughout.

As to `O=C(c1c(O)cc(O)cc1OCC1CCOCC1)N1Cc2cccc(NC3CCOC3)c2C1` (stereo not drawn) [Example 98, (2,4-Dihydroxy-6-((tetrahydro-2H-pyran-4-yl)methoxy)phenyl)(4-((tetrahydrofuran-3-yl)amino)isoindolin-2-yl)methanone], the IC50 was 1 to 10 µM in assay [1] and more than 10 µM in assay [2] (setting [3]).

Regarding `O=C(c1c(O)cc(O)cc1OCc1ccccc1)N1CCc2c(cccc2NC2CCOC2)C1` (stereo not drawn) [Example 27, (2-(Benzyloxy)-4,6-dihydroxyphenyl)(5-((tetrahydrofuran-3-yl)amino)-3,4-dihydroisoquinolin-2(1H)-yl)methanone], the IC50 in assay [1] and in assay [2] (setting [3]) was 1 to 10 µM throughout.

For the compound `COCOc1cc(OCOC)c(C(=O)N2CCc3cccc(N(C)C4CN(C(C)=O)C4)c3C2)c(OCc2ccccc2)c1` [Example 149, 1-(3-((2-(2-(Benzyloxy)-4,6-bis(methoxymethoxy)benzoyl)-1,2,3,4-tetrahydroisoquinolin-8-yl)(methyl)amino)azetidin-1-yl)ethan-1-one], the IC50 in assay [1] was 1 to 10 µM; in assay [2] (setting [3]), more than 10 µM.

As to `CN(C)C(=O)N1CCC(Nc2cccc3c2CN(C(=O)c2c(O)cc(O)cc2OCc2ccccc2)CC3)C1` (stereo not drawn) [Example 113, 3-((2-(2-(Benzyloxy)-4,6-dihydroxybenzoyl)-1,2,3,4-tetrahydroisoquinolin-8-yl)amino)-N,N-dimethylpyrrolidine-1-carboxamide], the IC50 is less than 1 µM in assay [1] and more than 10 µM in assay [2] (setting [3]).

As to `O=C(c1c(O)cc(O)cc1OCc1ccccn1)N1CCc2cccc(N[C@H]3CCOC3)c2C1` [Example 55, (S)-(2,4-Dihydroxy-6-(pyridin-2-ylmethoxy)phenyl)(8-((tetrahydrofuran-3-yl)amino)-3,4-dihydroisoquinolin-2(1H)-yl)methanone], the IC50 in assay [1] was less than 1 µM; in assay [2] (setting [3]), 1 to 10 µM.

For the compound `O=C(c1c(O)cc(O)cc1OCc1ccccc1)N1CCc2nccc(N[C@H]3CCOC3)c2C1` [Example 63, (S)-(2-(Benzyloxy)-4,6-dihydroxyphenyl)(4-((tetrahydrofuran-3-yl)amino)-7,8-dihydro-1,6-naphthyridin-6(5H)-yl)methanone], the IC50 in assay [1] is less than 1 µM; in assay [2] (setting [3]) it was 1 to 10 µM.

For the compound `COCCNc1cccc2c1CN(C(=O)c1c(O)cc(O)cc1OCc1ccccc1)CC2` [Example 44, (2-(Benzyloxy)-4,6-dihydroxyphenyl)(8-((2-methoxyethyl)amino)-3,4-dihydroisoquinolin-2(1H)-yl)methanone], the figures for the IC50 in assay [1] and in assay [2] (setting [3]) were less than 1 µM and 1 to 10 µM, respectively.

Take `COCCOc1cc2c(c(N[C@@H]3CCOC3)c1)CN(C(=O)c1c(O)cc(O)cc1OCc1ccccc1)CC2` [Example 60, (R)-(2-(Benzyloxy)-4,6-dihydroxyphenyl)(6-(2-methoxyethoxy)-8-((tetrahydrofuran-3-yl)amino)-3,4-dihydroisoquinolin-2(1H)-yl)methanone]: the figures for the IC50 in assay [1] and in assay [2] (setting [3]) were less than 1 µM and more than 10 µM, respectively.

For `Cc1cccc(COc2cc(O)cc(O)c2C(=O)N2CCc3cccc(N[C@H]4CCOC4)c3C2)c1` [Example 124, (S)-(2,4-Dihydroxy-6-((3-methylbenzyl)oxy)phenyl)(8-((tetrahydrofuran-3-yl)amino)-3,4-dihydroisoquinolin-2(1H)-yl)methanone], the IC50 in assay [1] and in assay [2] (setting [3]) was less than 1 µM in each case.

(Values after patent US20240293392A1, “INHIBITOR COMPOUNDS” (NeoPhore Limited, priority 2021, published 2024).)
